Reference: patent US20260257992A1, “AGONISTS OF SMALL HETERODIMER PARTNER FOR CANCER THERAPY” (THE BOARD OF TRUSTEES OF THE UNIVERSITY OF ILLINOIS, priority 2023, published 2026)

Key:
full length NR0B2 = biological target: T1, full length NR0B2 (Homo sapiens, UniProt Q15466); assay: Thermal shift assay with recombinant NR0B2; assay type: binding; settings: 1 mM ligand, 6 μM purified NR0B2; apo/unliganded 46.74±0.22
T1 construct: A gene containing a hexa-His-TEV fusion with full length NR0B2 in pET21(a)+ was transformed in E. coli BL21(DE3); hexa-His with TEV site; made in house; host or cells: E. coli BL21(DE3)
T1 sequence (Q15466 1-257): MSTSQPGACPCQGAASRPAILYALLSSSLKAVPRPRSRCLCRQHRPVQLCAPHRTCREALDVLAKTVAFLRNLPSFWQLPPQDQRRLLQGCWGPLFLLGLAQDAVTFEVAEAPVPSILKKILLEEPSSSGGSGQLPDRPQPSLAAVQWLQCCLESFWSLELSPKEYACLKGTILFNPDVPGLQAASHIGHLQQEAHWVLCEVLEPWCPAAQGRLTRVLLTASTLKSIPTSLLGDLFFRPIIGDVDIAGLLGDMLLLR
Experimental: Protein expression, purification, and thermal shift assay. A gene containing a hexa-His-TEV fusion with full length NR0B2 in pET21(a)+ was transformed in E. coli BL21(DE3). A single colony was used to inoculate a 100 mL starter culture of LB broth containing 100 μg/mL ampicillin, which was allowed to grow overnight with shaking at 37° C. This starter culture was used to inoculate flasks containing autoinducing media, which were grown at 37° C. with shaking until they reached an OD^600 of 0.8. Subsequently, the temperature was reduced to 16° C. and cells were allowed to grow for another 24 hours. After harvesting by centrifugation, cells were resuspended at 15 mL/g cell paste in a buffer comprised of 25 mM HEPES pH 8.0, 250 mM NaCl, 20 mM imidazole pH 8.0, 5% glycerol, 0.5 mM TCEP, and Roche EDTA-free protease inhibitor cocktail. Cells were lysed by sonication then centrifuged at 18,000×g for 30 minutes to remove insoluble material. The lysate was loaded onto a gravity flow Ni-NTA column, washed with 5 column volumes (CVs) of resuspension buffer, and protein was eluted using the resuspension buffer supplemented with 500 mM imidazole. Collected protein was dialyzed overnight in the resuspension buffer without imidazole then concentrated and purified on a Superdex 200 HiLoad 200 16/600 size exclusion column. […]

E0771 tumors = assay: Orthotopic syngeneic E0771 mammary tumor growth; assay type: in vivo, mouse
Source text: FIG. 3A-3F. DSHN, a tool small molecule agonist of NR0B2 reduces macrophage/dendritic cell induced Treg expansion and tumor growth in murine models. […] (B) Dendritic cells (left-CD11B^+; CD11C^+) and CD4^+ T cells (right) were isolated from MMTV-PyMT tumors by FACS, and treated with vehicle or DSHN for 3d. The resulting frequency of Treg (CD4^+; CD25^+; FoxP3^+) was quantified by flow cytometry (right graph), (N=3-5/group, t test). […] The percentage of divided CD8+ T cells in the second round was quantified. (D) DSHN increases efficacy of αPDL1 therapy on orthotopic E0771 tumors. An optimal number of E0771 cells were grafted into FoxP3-EGFP mice and allowed to grow until tumors reached 100 mm^3. Mice were euthanized on day 19 (waterfall plot, Fisher's exact test). (E) DSHN increases efficacy of αPDL1 therapy on orthotopic 4T1 tumors. 4T1 cells were orthotopically grafted into mice and allowed to establish for 5d prior to treatment start. Mice were euthanized on day 16 (waterfall plot, Fisher's exact test). (F) DSHN reduces metastatic outgrowth of 4T1 tumors and enhances efficacy of αPDL1 compared to placebo (p) (2-way ANOVA followed by Šidák's multiple comparison test for day 16). 4T1 cells were grafted intravenously, and lung metastatic lesions allowed to establish for 3d before treatment commenced. At the end of the study, lungs were removed and imaged ex vivo, quantified data indicated (N=10, 1-way ANOVA followed by Newman-Keuls multiple comparison test). Representative luciferase images shown to the right. * or different letters denote P<0.05 using indicated statistical test.
FIG. 7A-7I. DSHN-OMe reduces tumor and metastatic growth in murine models, in a myeloid cell-NR0B2 dependent manner. (A) E0771 cells were grafted into control mice (NR0B2^+/+; LysMCre^+) or mice where NR0B2 was knocked out in myeloid immune cells (NR0B2^fl/fl; LysMCre^+). […] (G) EMT6 metastatic lungs were assessed for Ki67 mRNA and (H) FOXP3 mRNA. (I) EMT6 metastatic lungs were assessed for CD8+ cytotoxic T cells (CD8+). […]

Structure (SMILES)	NR0B2 thermal melt temperature (TM) (full length NR0B2) [°C]	E0771 tumor growth, myeloid NR0B2 knockout (E0771 tumors; NR0B2fl/fl, LysMCre+ mice)	E0771 tumor growth (E0771 tumors; control NR0B2+/+, LysMCre+ mice, daily treatment from day 8)	Growth of established E0771 tumors, combined with αPDL1 (E0771 tumors; DSHN combined with αPDL1)
CCN(CC)S(=O)(=O)c1cccc2cc(C(=O)OC)c(O)cc12 [DSHN-OMe, Methyl 5-(N,N-diethylsulfamoyl)-3-hydroxy-2-naphthoate]	46.92±0.17	no significant impact	significantly reduced E0771 tumor growth	
CCN(CC)S(=O)(=O)c1cccc2cc(C(=O)O)c(O)cc12 [DSHN, reference compound]	46.34±0.51			decreased growth
